{"source": "patent US20090264421A1", "about": "(priority 2007, published 2009)", "key": {"normal plasma cells": {"test_system": "normal plasma cells", "experiment": "Survival of normal plasma cells and matched normal leucocytes, trypan blue exclusion", "assay_type": "cell-based, human", "conditions": "24 h exposure", "experimental": "A and B. Effects of chaetocin on survival of MGUS plasma cells and matched patient normal leucocytes from two patients (assessed by trypan blue exclusion assay, 24 h chaetocin exposures). C and D. Effects of chaetocin on survival of normal plasma cells and matched patient normal leucocytes from two patients (assessed by trypan blue exclusion assay, 24 h chaetocin exposures)."}, "TrxR1 [1]": {"target": "T1, TrxR1 (Rattus norvegicus, UniProt O89049)", "T1 sequence (O89049 1-499)": "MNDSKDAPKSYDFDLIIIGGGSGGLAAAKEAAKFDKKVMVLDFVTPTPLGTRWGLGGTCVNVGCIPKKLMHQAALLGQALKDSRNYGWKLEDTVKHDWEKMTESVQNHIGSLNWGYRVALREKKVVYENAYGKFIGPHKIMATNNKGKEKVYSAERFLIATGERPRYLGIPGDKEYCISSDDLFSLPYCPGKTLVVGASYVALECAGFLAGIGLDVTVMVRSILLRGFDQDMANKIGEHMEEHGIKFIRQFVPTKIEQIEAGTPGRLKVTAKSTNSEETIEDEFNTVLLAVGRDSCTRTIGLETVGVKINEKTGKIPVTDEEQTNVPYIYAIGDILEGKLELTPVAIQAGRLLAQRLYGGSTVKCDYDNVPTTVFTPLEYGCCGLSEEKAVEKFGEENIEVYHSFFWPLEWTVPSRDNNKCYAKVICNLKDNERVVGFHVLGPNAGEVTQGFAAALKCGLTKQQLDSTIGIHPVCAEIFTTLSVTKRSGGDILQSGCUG", "conditions": "substrate of TrxR1, NADPH oxidation", "text": "Reagents: Chaetocin, β-Nicotinamide adenine dinucleotide 2′-phosphate reduced tetrasodium salt hydrate (NADPH), rat liver thioredoxin reductase, 5,5′-dithiobis(2-nitrobenzoic acid) (DTNB), oxidized glutathione (GSSG), bovine insulin, gliotoxin, thioredoxin reductase assay kit, anti-actin antibody and Celytic lysis reagent were purchased from Sigma (St. Louis, Mo.); yeast glutathione reductase and Complete Protease Inhibitor Tablets from Roche (Indianapolis, Ind.); BCA protein from Pierce (Rockford, Ill.); oxidized E. coli thioredoxin and dithiothreitol (DTT) from Promega (Madison, Wis.); verruculogen from Calbiochem (San Diego, Calif.); 4-acetamido-4′-maleimidylstilbene-2,2′-disulfonic acid (AMS) and Lipofectamine-Plus from Invitrogen (Carlsbad, Calif.); chaetomin from Alexis Biochemicals (San Diego, Calif.); and anti-thioredoxin antibody from Cell Signaling (Beverly, Mass.). HeLa cells were obtained from ATCC.\nSteady-state kinetics: The 100 μL reaction consisted of 100 mM potassium phosphate (pH 7.0), 10 mM EDTA, 0.0004 U/μL thioredoxin reductase and chaetocin or other compounds as indicated. The assay was carried out in a 96-well quartz plate and the oxidation of NADPH was measured as a change in absorption at 340 nm. The initial velocities of the reaction were calculated from the decrease in the absorbance between 0 and 5 min (slope), and on a pathlength of 0.3 cm and NADPH ε=6.22 mmol^−1*cm^−1*L. The velocity versus concentration data were then analyzed using SigmaPlot's Enzyme Kinetics 1.3 program (Systat Software, San Jose, Calif.)."}, "[2]": {"test_system": "RPMI 8226 myeloma xenografts", "experiment": "RPMI 8226 SCID mouse flank xenograft model", "assay_type": "in vivo", "conditions": "0.25 mg/kg intraperitoneally twice weekly, three weeks of treatment of established tumors, p<0.05", "experimental": "FIG. 4. Patient myeloma cells treated in mixed culture are selectively killed by chaetocin in comparison to other bone marrow leukocytes, and chaetocin has in vivo anti-myeloma activity. A-C. Unsorted bone marrow leukocytes obtained from 4 patients with multiple myeloma were treated with 100 nM Chaetocin or diluent for 24 hours and then subjected to FACS analyses to examine induced cell death in various leukocyte subpopulations. […] Results from 4 unsorted patient marrow leukocyte samples are indicated in C, indicating selective killing of myeloma cells by chaetocin in mixed culture in all 4 examined patient samples. In A-C, surviving cells were defined as those with low annexin and 7-AAD staining. D. Chaetocin has in vivo anti-myeloma activity in the RRMI 8226 SCID flank xenograft mouse model. […]\nIn vivo experiments: The in vivo effects of chaetocin were preliminarily explored at Southern Research Institute with assistance from Dr. William Waud (Birmingham, Ala.) in SCID mice using subcutaneously flank-implanted RPMI 8226 myeloma xenografts using a twice-weekly intraperitoneal administration schedule, with chaetocin formulated in 25% DMSO and 75% PEG400. Tumor weights were calculated from volumes derived from direct tumor measurements. […]"}, "TrxR1 [3]": {"target": "T1, TrxR1", "experiment": "Thioredoxin reductase activity assay (DTNB method)", "assay_type": "biochemical", "set-up": "rat liver thioredoxin reductase; purchased Sigma (St. Louis, Mo.)", "conditions": "cell-free; read-out: IC50, TrxR1-initiated turnover of DTNB", "experimental": "HeLa cells were obtained from ATCC.\nFinal concentrations were 0.0005 U/μL of enzyme and 0.24 mM NADPH in the presence of chaetocin as indicated in a 100 μL reaction. The reaction was started by the addition of DTNB (3 mM) and the change in absorbance at 405 nm was monitored in a plate reader. Activity was calculated as the increase in absorbance between 2 and 5 min after DTNB addition."}, "[4]": {"experiment": "Tolerability of IP chaetocin in mice", "assay_type": "in vivo, mouse", "conditions": "0.6 mg/kg and 0.25 mg/kg IP twice weekly for two weeks", "experimental": "Subsequent in vivo work in mice utilized the following formulation: 0.06 mg/mL chaetocin in 20% PEG400 and 79.14% […] NaCl with 0.86% DMSO as a cosolvent. This system retains in vitro activity in cell culture models."}}}
{"compound": "CN1C(=O)[C@@]23C[C@]4([C@]56C[C@@]78SS[C@@](CO)(C(=O)N7[C@H]5Nc5ccccc56)N(C)C8=O)c5ccccc5N[C@@H]4N2C(=O)[C@]1(CO)SS3", "note": "[chaetocin]", "values": [{"measurement": "effect on granulocytes and other leukocytes", "setting": "normal plasma cells", "value": "largely sparing granulocytes and other leukocytes"}, {"measurement": "Km", "setting": "TrxR1 [1]", "value": "4.6 ± 0.6", "unit": "µM"}, {"measurement": "T/C values", "setting": "[2]", "value": "50-60%"}, {"measurement": "IC50", "setting": "TrxR1 [3]", "value": "~4", "unit": "µM"}, {"measurement": "GI toxicity", "setting": "[4]", "value": "some GI toxicity was noted"}, {"measurement": "tolerability", "setting": "[4]", "value": "tolerated"}]}
